Where a name gives a salt, the structure may show the parent alone.
Experiments:
Assay in all cases: PI3K enzyme inhibitory activity in the cell free assay (ADP-Glo Kinase Assay)
Type in all cases: biochemical
PI3Kβ = molecular target: T1, PI3Kβ (Homo sapiens, UniProt P42338); conditions: human recombinant PI3Kβ, ATP 100 μM; read-out: PI3K beta inhibition
T1 construct: purchased Millipore Ltd (Billerica, Mass.)

PI3Kδ = molecular target: T2, PI3Kδ (Homo sapiens, UniProt O00329); conditions: human recombinant PI3Kδ, ATP 80 μM; read-out: PI3K delta inhibition
T2 construct: purchased Millipore Ltd (Billerica, Mass.)
T2 sequence (O00329 1-1044): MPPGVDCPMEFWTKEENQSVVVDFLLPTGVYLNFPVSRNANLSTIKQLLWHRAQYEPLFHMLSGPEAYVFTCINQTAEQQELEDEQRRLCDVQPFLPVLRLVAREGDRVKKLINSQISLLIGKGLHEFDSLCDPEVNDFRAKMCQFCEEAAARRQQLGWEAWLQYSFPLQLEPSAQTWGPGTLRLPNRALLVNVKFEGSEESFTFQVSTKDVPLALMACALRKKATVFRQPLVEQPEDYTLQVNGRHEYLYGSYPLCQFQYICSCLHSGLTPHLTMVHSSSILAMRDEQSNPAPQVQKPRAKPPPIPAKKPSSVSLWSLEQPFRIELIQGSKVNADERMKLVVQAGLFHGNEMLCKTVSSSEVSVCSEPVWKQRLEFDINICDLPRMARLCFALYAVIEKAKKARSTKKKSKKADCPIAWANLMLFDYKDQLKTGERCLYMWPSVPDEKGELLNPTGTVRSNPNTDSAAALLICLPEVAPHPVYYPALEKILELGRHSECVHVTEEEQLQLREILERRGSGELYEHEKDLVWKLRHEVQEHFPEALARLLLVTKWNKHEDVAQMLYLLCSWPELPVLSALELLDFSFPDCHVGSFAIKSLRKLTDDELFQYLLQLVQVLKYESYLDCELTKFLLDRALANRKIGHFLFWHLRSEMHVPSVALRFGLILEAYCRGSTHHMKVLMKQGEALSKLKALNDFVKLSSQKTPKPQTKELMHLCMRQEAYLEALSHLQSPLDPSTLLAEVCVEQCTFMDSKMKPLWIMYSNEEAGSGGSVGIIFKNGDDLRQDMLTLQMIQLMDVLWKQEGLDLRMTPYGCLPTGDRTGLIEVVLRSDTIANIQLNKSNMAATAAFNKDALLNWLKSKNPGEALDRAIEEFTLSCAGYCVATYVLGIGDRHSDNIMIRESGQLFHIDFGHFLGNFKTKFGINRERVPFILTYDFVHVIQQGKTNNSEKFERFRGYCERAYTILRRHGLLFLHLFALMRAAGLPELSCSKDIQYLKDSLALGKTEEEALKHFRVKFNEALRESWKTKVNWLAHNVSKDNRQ

PI3Kγ = molecular target: T3, PI3Kγ (Homo sapiens, UniProt P48736); conditions: human recombinant PI3Kγ, ATP 30 μM; read-out: PI3K gamma inhibition
T3 construct: purchased Millipore Ltd (Billerica, Mass.)

PI3Kα = molecular target: T4, PI3Kα (Homo sapiens, UniProt P42336); conditions: human recombinant PI3Kα, ATP 50 μM; read-out: PI3K alpha inhibition
T4 construct: purchased Millipore Ltd (Billerica, Mass.)
T4 sequence (P42336 whole entry): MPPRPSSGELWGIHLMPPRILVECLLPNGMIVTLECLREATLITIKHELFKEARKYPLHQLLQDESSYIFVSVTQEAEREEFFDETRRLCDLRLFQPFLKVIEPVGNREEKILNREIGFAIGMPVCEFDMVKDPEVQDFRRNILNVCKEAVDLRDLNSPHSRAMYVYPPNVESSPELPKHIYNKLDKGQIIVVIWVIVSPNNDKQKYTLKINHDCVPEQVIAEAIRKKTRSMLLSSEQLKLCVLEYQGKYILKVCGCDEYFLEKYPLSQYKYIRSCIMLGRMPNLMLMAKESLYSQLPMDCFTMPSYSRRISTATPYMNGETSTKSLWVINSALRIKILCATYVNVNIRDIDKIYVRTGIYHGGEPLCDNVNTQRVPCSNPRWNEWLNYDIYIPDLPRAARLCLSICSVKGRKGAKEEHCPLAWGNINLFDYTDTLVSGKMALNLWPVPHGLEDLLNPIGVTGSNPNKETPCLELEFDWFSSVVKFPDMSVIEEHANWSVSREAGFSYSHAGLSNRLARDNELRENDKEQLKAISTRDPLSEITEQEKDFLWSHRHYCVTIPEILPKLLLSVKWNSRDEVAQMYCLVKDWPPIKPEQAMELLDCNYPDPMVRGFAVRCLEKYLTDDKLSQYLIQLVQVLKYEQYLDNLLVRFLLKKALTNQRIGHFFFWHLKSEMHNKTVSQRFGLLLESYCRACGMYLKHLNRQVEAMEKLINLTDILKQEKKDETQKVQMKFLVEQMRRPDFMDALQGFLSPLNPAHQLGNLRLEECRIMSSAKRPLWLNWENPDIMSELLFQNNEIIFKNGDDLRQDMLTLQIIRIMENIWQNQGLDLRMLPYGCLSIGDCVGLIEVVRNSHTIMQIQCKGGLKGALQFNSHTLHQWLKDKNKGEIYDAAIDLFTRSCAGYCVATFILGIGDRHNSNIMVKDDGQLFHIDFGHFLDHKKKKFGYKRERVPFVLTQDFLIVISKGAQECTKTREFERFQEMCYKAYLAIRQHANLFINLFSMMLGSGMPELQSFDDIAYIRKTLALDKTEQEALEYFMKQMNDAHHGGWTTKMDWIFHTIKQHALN

T3 sequence (P48736 whole entry): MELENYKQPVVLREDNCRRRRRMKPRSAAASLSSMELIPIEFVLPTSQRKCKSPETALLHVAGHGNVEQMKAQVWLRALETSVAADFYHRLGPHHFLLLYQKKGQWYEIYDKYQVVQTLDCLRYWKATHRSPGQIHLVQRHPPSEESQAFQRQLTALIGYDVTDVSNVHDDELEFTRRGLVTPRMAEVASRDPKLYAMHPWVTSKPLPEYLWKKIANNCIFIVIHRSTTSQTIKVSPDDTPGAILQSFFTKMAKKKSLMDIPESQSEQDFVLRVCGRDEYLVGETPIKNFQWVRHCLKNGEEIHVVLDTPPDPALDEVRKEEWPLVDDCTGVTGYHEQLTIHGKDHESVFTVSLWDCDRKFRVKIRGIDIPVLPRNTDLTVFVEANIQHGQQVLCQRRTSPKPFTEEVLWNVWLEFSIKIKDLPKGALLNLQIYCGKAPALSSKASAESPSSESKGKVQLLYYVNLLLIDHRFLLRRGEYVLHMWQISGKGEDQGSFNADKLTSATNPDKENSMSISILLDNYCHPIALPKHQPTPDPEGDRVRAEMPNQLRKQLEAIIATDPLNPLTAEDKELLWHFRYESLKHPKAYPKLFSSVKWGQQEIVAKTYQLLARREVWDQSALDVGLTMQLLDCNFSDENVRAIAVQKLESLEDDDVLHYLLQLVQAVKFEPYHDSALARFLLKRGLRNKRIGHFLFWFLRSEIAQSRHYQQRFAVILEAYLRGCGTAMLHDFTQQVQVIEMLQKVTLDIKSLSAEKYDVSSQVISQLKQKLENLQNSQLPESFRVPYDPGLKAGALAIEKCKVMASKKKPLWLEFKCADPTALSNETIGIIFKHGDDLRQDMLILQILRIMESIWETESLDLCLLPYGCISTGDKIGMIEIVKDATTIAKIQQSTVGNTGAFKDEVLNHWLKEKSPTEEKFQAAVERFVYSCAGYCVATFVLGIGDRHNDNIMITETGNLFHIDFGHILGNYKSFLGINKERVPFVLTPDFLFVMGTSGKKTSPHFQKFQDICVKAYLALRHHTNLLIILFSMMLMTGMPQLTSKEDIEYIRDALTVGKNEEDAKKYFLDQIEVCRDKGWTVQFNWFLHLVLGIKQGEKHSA
T1 sequence (P42338 whole entry): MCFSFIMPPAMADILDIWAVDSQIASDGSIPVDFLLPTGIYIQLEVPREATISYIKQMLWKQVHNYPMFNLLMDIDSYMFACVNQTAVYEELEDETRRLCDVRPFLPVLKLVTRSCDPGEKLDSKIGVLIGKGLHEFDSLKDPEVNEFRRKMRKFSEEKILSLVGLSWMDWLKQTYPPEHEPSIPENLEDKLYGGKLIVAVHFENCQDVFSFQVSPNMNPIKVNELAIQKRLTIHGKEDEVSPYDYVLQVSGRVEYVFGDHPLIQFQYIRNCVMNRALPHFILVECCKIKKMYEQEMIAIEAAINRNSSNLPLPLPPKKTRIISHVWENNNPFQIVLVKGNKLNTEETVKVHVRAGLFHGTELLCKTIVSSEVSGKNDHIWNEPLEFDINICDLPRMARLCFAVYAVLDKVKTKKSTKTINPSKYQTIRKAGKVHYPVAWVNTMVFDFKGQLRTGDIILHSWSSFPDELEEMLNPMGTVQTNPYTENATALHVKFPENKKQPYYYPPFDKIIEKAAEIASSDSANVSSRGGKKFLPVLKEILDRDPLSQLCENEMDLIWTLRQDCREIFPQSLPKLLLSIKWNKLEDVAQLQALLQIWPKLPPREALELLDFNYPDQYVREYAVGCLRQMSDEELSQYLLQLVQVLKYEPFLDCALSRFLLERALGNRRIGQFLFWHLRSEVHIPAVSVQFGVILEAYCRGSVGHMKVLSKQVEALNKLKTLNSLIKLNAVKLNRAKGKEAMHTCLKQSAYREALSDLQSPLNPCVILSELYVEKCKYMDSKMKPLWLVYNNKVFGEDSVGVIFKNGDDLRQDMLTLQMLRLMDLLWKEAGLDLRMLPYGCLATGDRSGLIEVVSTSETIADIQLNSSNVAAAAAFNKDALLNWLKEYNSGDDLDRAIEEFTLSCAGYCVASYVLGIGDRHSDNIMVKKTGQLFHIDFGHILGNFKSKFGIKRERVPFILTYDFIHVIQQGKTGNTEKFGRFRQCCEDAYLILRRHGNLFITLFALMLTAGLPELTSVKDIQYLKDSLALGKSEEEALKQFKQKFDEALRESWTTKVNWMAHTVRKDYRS

SMILES | IC50 (PI3Kβ) [nM] | IC50 (PI3Kδ) [nM] | IC50 (PI3Kγ) [nM] | IC50 (PI3Kα) [nM]
CC(c1oc(=O)c2ccccc2c1-c1ccc(CN2CCCCC2)cc1)n1nc(-c2cc(O)cc(F)c2)c2c(N)ncnc21 (stereo not shown) [Example 141, 3-(1-(4-amino-3-(3-fluoro-5-hydroxyphenyl)-1H-pyrazolo[3,4-d]pyrimidin-1-yl)ethyl)-4-(4-(piperidin-1-ylmethyl)phenyl)-1H-isochromen-1-one, hydrochloride] | 10 to 1000 | < 10 | > 1000 | > 1000
CC(c1oc(=O)c2ccccc2c1-c1cncs1)n1nc(-c2cc(O)cc(F)c2)c2c(N)ncnc21 (stereo not shown) [Example 120, 3-(1-(4-amino-3-(3-fluoro-5-hydroxyphenyl)-1H-pyrazolo[3,4-d]pyrimidin-1-yl)ethyl)-4-(thiazol-5-yl)-1H-isochromen-1-one] | 10 to 1000 | < 10 | 10 to 1000 | 10 to 1000
CC(c1oc(=O)c2ccccc2c1C1=CCNCC1)n1nc(-c2cc(O)cc(C(F)(F)F)c2)c2c(N)ncnc21 (stereo not shown) [Example 153, 3-(1-(4-amino-3-(3-hydroxy-5-(trifluoromethyl)phenyl)-1H-pyrazolo[3,4-d]pyrimidin-1-yl)ethyl)-4-(1,2,3,6-tetrahydropyridin-4-yl)-1H-isochromen-1-one formate] | 10 to 1000 | < 10 | > 1000 | > 1000
CC(c1oc(=O)c2ccccc2c1-c1ccccc1)n1nc(-c2cncc(NS(=O)(=O)c3ccc(F)cc3)c2)c2c(N)ncnc21 (stereo not shown) [Example 87, N-(5-(4-amino-1-(1-(1-oxo-4-phenyl-1H-isochromen-3-yl)ethyl)-1H-pyrazolo[3,4-d]pyrimidin-3-yl)pyridin-3-yl)-4-fluorobenzenesulfonamide] |  | 10 to 1000 | 10 to 1000 | 10 to 1000
CC(c1oc(=O)c2ccccc2c1C1=CCCN(Cc2ccccc2)C1)n1nc(-c2cc(O)cc(F)c2)c2c(N)ncnc21 (stereo not shown) [Example 169, 3-(1-(4-amino-3-(3-fluoro-5-hydroxyphenyl)-1H-pyrazolo[3,4-d]pyrimidin-1-yl)ethyl)-4-(1-benzyl-1,2,5,6-tetrahydropyridin-3-yl)-1H-isochromen-1-one hydrochloride] | 10 to 1000 | < 10 | 10 to 1000 | > 1000
CC(c1oc(=O)c2ccccc2c1C1=CCCN(C2CNC2)C1)n1nc(-c2cc(O)cc(F)c2)c2c(N)ncnc21 (stereo not shown) [Example 173, 3-(1-(4-amino-3-(3-fluoro-5-hydroxyphenyl)-1H-pyrazolo[3,4-d]pyrimidin-1-yl)ethyl)-4-(1-(azetidin-3-yl)-1,2,5,6-tetrahydropyridin-3-yl)-1H-isochromen-1-one dihydrochloride] | 10 to 1000 | < 10 | 10 to 1000 | 10 to 1000
CC(c1oc(=O)c2ccccc2c1-c1cccc(CCCN(C)C)c1)n1nc(-c2cc(O)cc(F)c2)c2c(N)ncnc21 (single isomer, unassigned) [Example 137b, 3-(1-(4-amino-3-(3-fluoro-5-hydroxyphenyl)-1H-pyrazolo[3,4-d]pyrimidin-1-yl)ethyl)-4-(3-(3-(dimethylamino)propyl)phenyl)-1H-isochromen-1-one single enantiomers] | 10 to 1000 | < 10 | 10 to 1000 | > 1000
CC(c1oc(=O)c2ccccc2c1C#CCN(C)C)n1nc(-c2cc(O)cc(F)c2)c2c(N)ncnc21 (stereo not shown) [Example 158, 3-(1-(4-amino-3-(3-fluoro-5-hydroxyphenyl)-1H-pyrazolo[3,4-d]pyrimidin-1-yl)ethyl)-4-(3-(dimethylamino)prop-1-yn-1-yl)-1H-isochromen-1-one hydrochloride] | 10 to 1000 | 10 to 1000 |  | 10 to 1000
Cc1ccc2c(-c3ccccc3)c(C(C)n3nc(-c4cc(O)cc(F)c4)c4c(N)ncnc43)oc(=O)c2c1 (stereo not shown) [Example 162, 3-(1-(4-amino-3-(3-fluoro-5-hydroxyphenyl)-1H-pyrazolo[3,4-d]pyrimidin-1-yl)ethyl)-7-methyl-4-phenyl-1H-isochromen-1-one] |  | 10 to 1000 | 10 to 1000 | > 1000
CC(c1oc(=O)c2ccccc2c1-c1ccccc1)n1nc(-c2cc[nH]n2)c2c(N)ncnc21 (stereo not shown) [Example 111, 3-(1-(4-amino-3-(1H-pyrazol-3-yl)-1H-pyrazolo[3,4-d]pyrimidin-1-yl)ethyl)-4-phenyl-1H-isochromen-1-one] |  | 10 to 1000 | 10 to 1000 | > 1000
Cc1cccc(-c2c(C(C)n3nc(-c4cn[nH]c4)c4c(N)ncnc43)oc(=O)c3ccccc23)c1 (stereo not shown) [Example 42, 3-(1-(4-Amino-3-(1H-pyrazol-4-yl)-1H-pyrazolo[3,4-d]pyrimidin-1-yl)ethyl)-4-m-tolyl-1H-isochromen-1-one] |  | < 10 | 10 to 1000 | > 1000
CC(c1oc(=O)c2ccccc2c1C1=CCCN(Cc2ccccc2)C1)n1nc(-c2cc(O)cc(F)c2)c2c(N)ncnc21 (single isomer, unassigned) [Example 169b, 3-(1-(4-amino-3-(3-fluoro-5-hydroxyphenyl)-1H-pyrazolo[3,4-d]pyrimidin-1-yl)ethyl)-4-(1-benzyl-1,2,5,6-tetrahydropyridin-3-yl)-1H-isochromen-1-one hydrochloride single enantiomers] | 10 to 1000 |  |  | > 1000
Nc1ncnc2c1c(-c1ccc3[nH]ncc3c1)nn2Cc1oc(=O)c2ccccc2c1-c1ccccc1 [Example 36, 3-((4-Amino-3-(1H-indazol-5-yl)-1H-pyrazolo[3,4-d]pyrimidin-1-yl)methyl)-4-phenyl-1H-isochromen-1-one] | > 1000 | 10 to 1000 | 10 to 1000 | 
CC(c1oc(=O)c2ccccc2c1-c1ccccc1)n1nc(-c2cccc3[nH]ncc23)c2c(N)ncnc21 (stereo not shown) [Example 112, 3-(1-(4-amino-3-(1H-indazol-4-yl)-1H-pyrazolo[3,4-d]pyrimidin-1-yl)ethyl)-4-phenyl-1H-isochromen-1-one] | > 1000 | 10 to 1000 | 10 to 1000 | 
Nc1ncnc2c1ncn2Cc1oc(=O)c2ccccc2c1-c1ccccc1F [Example 3, 3-((6-Amino-9H-purin-9-yl)methyl)-4-(2-fluorophenyl)-1H-isochromen-1-one] | > 1000 | 10 to 1000 | > 1000 | 
O=c1oc(CNc2ncnc3[nH]cnc23)c(-c2ccccc2)c2ccccc12 [Example 29, 3-((9H-Purin-6-ylamino)methyl)-4-phenyl-1H-isochromen-1-one] |  |  | 10 to 1000 | > 1000
CC(Nc1ncnc2[nH]cnc12)c1oc(=O)c2ccccc2c1-c1ccc(CN2CCOCC2)s1 (stereo not shown) [Example 28, 3-(1-(9H-Purin-6-ylamino)ethyl)-4-(5-(morpholinomethyl)thiophen-2-yl)-1H-isochromen-1-one] | > 1000 | < 10 | 10 to 1000 | 
CC(c1oc(=O)c2ccccc2c1-c1ccccc1)n1nc(C(F)(F)F)c2c(N)ncnc21 (stereo not shown) [Example 104, 3-(1-(4-amino-3-(trifluoromethyl)-1H-pyrazolo[3,4-d]pyrimidin-1-yl)ethyl)-4-phenyl-1H-isochromen-1-one] | > 1000 | 10 to 1000 | > 1000 | 
CC(c1oc(=O)c2ccccc2c1-c1ccccc1)n1nc(-c2cncc(N)c2)c2c(N)ncnc21 (stereo not shown) [Example 88, 3-(1-(4-amino-3-(5-aminopyridin-3-yl)-1H-pyrazolo[3,4-d]pyrimidin-1-yl)ethyl)-4-phenyl-1H-isochromen-1-one hydrochloride] | 10 to 1000 | 10 to 1000 | > 1000 | 

Source: US9321776B2, “Isochromene derivatives as phoshoinositide 3-kinases inhibitors” (CHIESI FARMACEUTICI S.p.A., priority 2013, dated 2016)
